In US10745398B2, “2-(het)aryl-substituted fused heterocycle derivatives as pesticides” (Bayer CropScience Aktiengesellschaft, priority 2015, dated 2020):

Key:
[1] = system: larvae of the mustard beetle (Phaedon cochleariae); experiment: Phaedon cochleariae - spray test; assay type: in vivo; conditions: application rate 500 g/ha, Chinese cabbage leaf discs, after 7 days
Experimental: (§1) Solvent: 78.0 parts by weight of acetone • • 1.5 parts by weight of dimethylformamide
(§2) Emulsifier: alkylaryl polyglycol ether
(§3) To produce a suitable active compound preparation, 1 part by weight of active compound is dissolved with the stated parts by weight of solvent and made up with water containing an emulsifier concentration of 1000 ppm until the desired concentration is attained. To produce further test concentrations, the preparation is diluted with emulsifier-containing water.
After 7 days, the efficacy in % is determined. 100% means that all the beetle larvae have been killed; 0% means that no beetle larvae have been killed.

[2] = system: caterpillars of the armyworm (Spodoptera frugiperda); experiment: Spodoptera frugiperda - spray test; assay type: in vivo; conditions: application rate 500 g/ha, maize leaf discs, after 7 days
Experimental: as §1, §2, §3
Leaf discs of maize (Zea mays) are sprayed with an active compound preparation of the desired concentration and, after drying, populated with caterpillars of the armyworm (Spodoptera frugiperda).
After 7 days, the efficacy in % is determined. 100% means that all the caterpillars have been killed; 0% means that no caterpillar has been killed.

[3] = log P (neutral) by HPLC on reversed-phase column (C 18), EEC Directive 79/831 Annex V.A8; assay type: physicochemical; conditions: HPLC reversed-phase C 18, 55° C., neutral range pH 7.8, ammonium hydrogencarbonate/acetonitrile; for chromatographic logP: reversed-phase HPLC column (C 18)
[4] = system: unfed adult cat fleas (Ctenocephalides felis); experiment: Ctenocephalides felis - oral test; assay type: in vivo; conditions: application rate 100 ppm in citrated cattle blood, after 2 days
Experimental: (§4) Solvent: dimethyl sulphoxide
To produce a suitable active compound preparation, 10 mg of active compound are mixed with 0.5 ml of dimethyl sulphoxide. Dilution with citrated cattle blood gives the desired concentration.
About 20 unfed adult cat fleas (Ctenocephalides felis) are placed into a chamber which is closed at the top and bottom with gauze. A metal cylinder whose bottom end is closed with parafilm is placed onto the chamber. The cylinder contains the blood/active compound preparation, which can be imbibed by the fleas through the parafilm membrane.
After 2 days, the kill in % is determined. 100% means that all of the fleas have been killed; 0% means that none of the fleas have been killed.

[5] = system: L1 larvae of the Australian sheep blowfly (Lucilia cuprina); experiment: Lucilia cuprina test; assay type: in vivo; conditions: application rate 100 ppm, after 2 days
Experimental: as §4
(§5) To produce a suitable active compound preparation, 10 mg of active compound are mixed with 0.5 ml of dimethyl sulphoxide, and the concentrate is diluted with water to the desired concentration.
About 20 L1 larvae of the Australian sheep blowfly (Lucilia cuprina) are transferred into a test vessel containing minced horsemeat and the active compound preparation of the desired concentration.
After 2 days, the kill in % is determined. 100% means that all the larvae have been killed; 0% means that no larvae have been killed.

[6] = system: engorged adult female cattle ticks (Boophilus microplus); experiment: Boophilus microplus - injection test; assay type: in vivo; conditions: application rate 20 μg/animal, assessed after 7 days
Experimental: as §4
To produce a suitable active compound preparation, 10 mg of active compound are mixed with 0.5 ml of solvent and the concentrate is diluted with solvent to the desired concentration.
1 μl of the active compound solution is injected into the abdomen of 5 engorged adult female cattle ticks (Boophilus microplus). The animals are transferred into dishes and kept in a climate-controlled room.
Efficacy is assessed after 7 days by laying of fertile eggs. Eggs which are not visibly fertile are stored in a climate-controlled cabinet until the larvae hatch after about 42 days. An efficacy of 100% means that none of the ticks has laid any fertile eggs; 0% means that all the eggs are fertile.

[7] = system: adult houseflies (Musca domestica); experiment: Musca domestica test; assay type: in vivo; conditions: application rate 100 ppm, after 2 days
Experimental: as §4, §5
Vessels containing a sponge treated with sugar solution and the active compound preparation of the desired concentration are populated with 10 adult houseflies (Musca domestica).
After 2 days, the kill in % is determined. 100% means that all of the flies have been killed; 0% means that none of the flies have been killed.

[8] = system: green peach aphid (Myzus persicae); experiment: Myzus persicae - spray test; assay type: in vivo; conditions: application rate 500 g/ha, Chinese cabbage leaf discs, after 5-6 days
Experimental: Solvent: 78 parts by weight of acetone • • 1.5 parts by weight of dimethylformamide
as §2, §3
Discs of Chinese cabbage leaves (Brassica pekinensis) infested by all stages of the green peach aphid (Myzus persicae) are sprayed with an active compound preparation of the desired concentration.
After 5-6 days, the efficacy in % is determined. 100% means that all the aphids have been killed; 0% means that no aphids have been killed.

For `CCS(=O)(=O)c1ccc(-n2nc(C(F)(F)F)n(-c3ccccc3)c2=O)nc1-c1nc2cc(C(F)(F)F)ncc2n1C` [Example I-22], the “efficacy (beetle larvae killed)” value [1] was 100% and the “efficacy (caterpillars killed)” value [2] was 100%.
For `CCS(=O)(=O)c1ccc(-n2nnn(-c3ccc(Cl)cc3)c2=O)nc1-c1nc2cc(C(F)(F)F)ncc2n1C` [Example I-21], the “log P (neutral)” value [3] was “Example I-21: logP (neutral): 3.71: 1H-NMR(400.0 MHz, d6-DMSO): □ =”, the “efficacy (beetle larvae killed)” value [1] was 100% and the “efficacy (caterpillars killed)” value [2] was 100%. For the same compound, the “efficacy (kill in %)” value [4] was 80% and the “efficacy (kill in %)” value [5] was 100%.
In the case of `CCS(=O)(=O)c1ccc(-n2ncn(-c3ccc(Cl)cc3)c2=O)nc1-c1nc2cc(C(F)(F)F)ncc2n1C` [Example I-19], the “log P (neutral)” value [3] is reported as “Example I-19: logP (neutral): 2.82 1H-NMR(400.0 MHz, d6-DMSO): □ =”, the “efficacy (no laying of fertile eggs)” value [6] is reported as 80% and the “efficacy (beetle larvae killed)” value [1] is reported as 100%. For the same compound, the “efficacy (caterpillars killed)” value [2] was 100%, the “efficacy (kill in %)” value [7] was 80% and the “efficacy (kill in %)” value [4] was 100%. The “efficacy (kill in %)” value [5] was 100%.
For `CCS(=O)(=O)c1ccc(-n2ccc(-c3ccccc3Cl)n2)nc1-c1nc2cc(C(F)(F)F)ncc2n1C` [Example I-13], the “log P (neutral)” value [3] was “Example I-13: logP (neutral): 4.58 ^1H-NMR(400.0 MHz, d6-DMSO): δ =” and the “efficacy (beetle larvae killed)” value [1] was 100%.
With `CCS(=O)(=O)c1ccc(-n2cc(-c3ccc(F)cc3)cn2)nc1-c1nc2cc(C(F)(F)F)ncc2n1C` [Example I-11] the “log P (neutral)” value [3] was “Example I-11: logP (neutral): 4.17 ^1H-NMR(400.0 MHz, d6-DMSO): δ =” and the “efficacy (beetle larvae killed)” value [1] was 100%.
In the case of `CCS(=O)(=O)c1ccc(-n2nnn(-c3ccccc3Cl)c2=O)nc1-c1nc2cc(C(F)(F)F)ncc2n1C` [Example I-4], the “efficacy (caterpillars killed)” value [2] is reported as 100%.
For `CCS(=O)(=O)c1ccc(-n2ccc(-c3cccc(Cl)c3)n2)nc1-c1nc2cc(C(F)(F)F)ncc2n1C` [Example I-23], the “log P (neutral)” value [3] was “Example I-23: logP (neutral): 4.64 1H-NMR(400.0 MHz, d6-DMSO): □ =”, the “efficacy (beetle larvae killed)” value [1] was 100% and the “efficacy (caterpillars killed)” value [2] was 100%. For the same compound, the “efficacy (kill in %)” value [4] was 100% and the “efficacy (kill in %)” value [5] was 100%.
In the case of `CCS(=O)(=O)c1ccc(-n2ccc(-c3ccc(Cl)cc3)n2)nc1-c1nc2cc(C(F)(F)F)ncc2n1C` [Example I-6], the “log P (neutral)” value [3] is reported as “Example I-6: logP (neutral): 4.62 ^1H-NMR(400.0 MHz, d6-DMSO): δ =”, the “efficacy (beetle larvae killed)” value [1] is reported as 100% and the “efficacy (caterpillars killed)” value [2] is reported as 83%. For the same compound, the “efficacy (kill in %)” value [4] was 90% and the “efficacy (kill in %)” value [5] was 100%.
With `CCS(=O)(=O)c1ccc(-n2cc(-c3cccc(Br)c3)cn2)nc1-c1nc2cc(C(F)(F)F)ncc2n1C` [Example I-12] the “log P (neutral)” value [3] was “Example I-12: logP (neutral): 4.48 ^1H-NMR(400.0 MHz, d6-DMSO): δ =”, the “efficacy (no laying of fertile eggs)” value [6] was 90% and the “efficacy (beetle larvae killed)” value [1] was 100%. For the same compound, the “efficacy (caterpillars killed)” value [2] was 100%, the “efficacy (kill in %)” value [4] was 100% and the “efficacy (kill in %)” value [5] was 100%.
With `CCS(=O)(=O)c1ccc(-n2cnn(-c3c(F)cccc3F)c2=O)nc1-c1nc2cc(C(F)(F)F)ncc2n1C` [Example I-20] the “log P (neutral)” value [3] was “Example I-20: logP (neutral): 3.13 1H-NMR(400.0 MHz, d6-DMSO): □ =”.
In the case of `CCS(=O)(=O)c1ccc(-n2cc(-c3ccccc3)cn2)nc1-c1nc2cc(C(F)(F)F)ncc2n1C` [Example I-9], the “log P (neutral)” value [3] is reported as “Example I-9: logP (neutral): 3.92 ^1H-NMR(400.0 MHz, d6-DMSO): δ =”, the “efficacy (beetle larvae killed)” value [1] is reported as 100% and the “efficacy (caterpillars killed)” value [2] is reported as 100%.
In the case of `CCS(=O)(=O)c1ccc(-n2cnn(-c3ccccc3F)c2=O)nc1-c1cn2cnc(C(F)(F)F)cc2n1` [Example I-35, 4-{5-(Ethylsulfonyl)-6-[7-(trifluoromethyl)imidazo[1,2-c]pyrimidine-2-yl]pyridin-2-yl}-2-(2-fluorophenyl)-2,4-dihydro-3H-1,2,4-triazol-3-one], the chromatographic logP [3] is reported as 3.16, the “efficacy (beetle larvae killed)” value [1] is reported as 100% and the “efficacy (caterpillars killed)” value [2] is reported as 100%.
With `CCS(=O)(=O)c1ccc(-n2cc(-c3ccc(Cl)cc3)cn2)nc1-c1nc2cc(C(F)(F)F)ncc2n1C` [Example I-10] the “log P (neutral)” value [3] was “Example I-10: logP (neutral): 4.33 ^1H-NMR(400.0 MHz, d6-DMSO): δ =” and the “efficacy (beetle larvae killed)” value [1] was 100%.
For `CCS(=O)(=O)c1ccc(-n2cc(Cl)c(-c3ccc(F)c(Cl)c3)n2)nc1-c1nc2cc(C(F)(F)F)ncc2n1C` [Example I-25], the “log P (neutral)” value [3] was “Example I-25: logP (neutral): 5.23 1H-NMR(400.0 MHz, d6-DMSO): □ =” and the “efficacy (beetle larvae killed)” value [1] was 100%.
With `CCS(=O)(=O)c1ccc(-c2cc(-c3ccccc3)no2)nc1-c1nc2cc(C(F)(F)F)ncc2n1C` [Example I-31] the “log P (neutral)” value [3] was “Example I-31: logP (neutral): 3.81 1H-NMR(400.0 MHz, d6-DMSO): □ =” and the “efficacy (caterpillars killed)” value [2] was 100%.
For `CCS(=O)(=O)c1ccc(-n2cnc(-c3ccccn3)n2)nc1-c1nc2cc(C(F)(F)F)ncc2n1C` [Example I-26], the “log P (neutral)” value [3] was “Example I-26: logP (neutral): 2.43 1H-NMR(400.0 MHz, d6-DMSO): □ =”, the “efficacy (beetle larvae killed)” value [1] was 100% and the “efficacy (caterpillars killed)” value [2] was 100%. The “efficacy (aphids killed)” value [8] was 90%.
With `CCS(=O)(=O)c1ccc(-n2cc(-c3ncccc3Cl)cn2)nc1-c1nc2cc(C(F)(F)F)ncc2n1C` [Example I-7] the “log P (neutral)” value [3] was “Example I-7: logP (neutral): 3.66 ^1H-NMR(400.0 MHz, d6-DMSO): δ =”, the “efficacy (beetle larvae killed)” value [1] was 100% and the “efficacy (caterpillars killed)” value [2] was 100%. For the same compound, the “efficacy (kill in %)” value [4] was 100% and the “efficacy (kill in %)” value [5] was 100%.
For `CCS(=O)(=O)c1ccc(-c2cnn(-c3ccccc3F)c2)nc1-c1nc2cc(C(F)(F)F)ncc2n1C` [Example I-28], the “log P (neutral)” value [3] was “Example I-28: logP (neutral): 3.38 1H-NMR(400.0 MHz, d6-DMSO): □ =”, the “efficacy (beetle larvae killed)” value [1] was 100% and the “efficacy (caterpillars killed)” value [2] was 100%. The “efficacy (kill in %)” value [4] was 100% and the “efficacy (kill in %)” value [5] was 100%.
For `CCS(=O)(=O)c1ccc(-n2cnn(-c3ccc(Cl)cc3Cl)c2=O)nc1-c1nc2cc(C(F)(F)F)ncc2n1C` [Example I-2, 2-(2,4-Dichlorophenyl)-4-[5-ethylsulfonyl-6-[3-methyl-6-(trifluoromethyl)imidazo[4,5-c]pyridin-2-yl]-2-pyridyl]-1,2,4-triazol-3-one], the chromatographic logP [3] was 3.71, the “efficacy (beetle larvae killed)” value [1] was 100% and the “efficacy (caterpillars killed)” value [2] was 100%. For the same compound, the “efficacy (kill in %)” value [7] was 90% and the “efficacy (kill in %)” value [5] was 100%.
In the case of `CCS(=O)(=O)c1ccc(-n2ncn(-c3ccc(Br)cc3)c2=O)nc1-c1nc2cc(C(F)(F)F)ncc2n1C` [Example I-16], the “efficacy (beetle larvae killed)” value [1] is reported as 100%, the “efficacy (caterpillars killed)” value [2] is reported as 100% and the “efficacy (kill in %)” value [7] is reported as 80%. For the same compound, the “efficacy (kill in %)” value [4] was 100% and the “efficacy (kill in %)” value [5] was 100%.
With `CCS(=O)(=O)c1ccc(-n2cnn(-c3ccccc3F)c2=O)nc1-c1nc2cc(C(F)(F)F)ccc2n1C` [Example I-34] the “efficacy (beetle larvae killed)” value [1] was 100% and the “efficacy (caterpillars killed)” value [2] was 100%.
In the case of `CCS(=O)(=O)c1ccc(-n2ccc(-c3ccco3)n2)nc1-c1nc2cc(C(F)(F)F)ncc2n1C` [Example I-14], the “log P (neutral)” value [3] is reported as “Example I-14: logP (neutral): 3.47 1H-NMR(601.6 MHz, d6-DMSO): □ =”.
With `CCS(=O)(=O)c1ccc(-n2cnc(-c3cccnc3)n2)nc1-c1nc2cc(C(F)(F)F)ncc2n1C` [Example I-27] the “log P (neutral)” value [3] was “Example I-27: logP (neutral): 2.54 1H-NMR(400.0 MHz, d6-DMSO): □ =”, the “efficacy (beetle larvae killed)” value [1] was 100% and the “efficacy (caterpillars killed)” value [2] was 100%.
For `CCS(=O)(=O)c1ccc(N2CCN(c3ccc(Cl)cc3)C2=O)nc1-c1nc2cc(C(F)(F)F)ncc2n1C` [Example I-5], the “log P (neutral)” value [3] was “Example I-5: logP (neutral): 3.86 ^1H-NMR(400.0 MHz, d6-DMSO): δ =”, the “efficacy (beetle larvae killed)” value [1] was 100% and the “efficacy (caterpillars killed)” value [2] was 100%.
